These results are taken from patent US20240043943A1, “METHODS AND COMPOSITIONS FOR PROTEASE REPORTER ASSAYS AND MODULATORS” (712 NORTH, INC., priority 2021, published 2024).

The structures appear in SMILES notation. Entries after “also recorded” stand apart in the source; their conditions may differ.

Experiment [1] addresses T1, OMA1 protease (Homo sapiens, UniProt Q96E52).
T1 sequence (Q96E52 144-524): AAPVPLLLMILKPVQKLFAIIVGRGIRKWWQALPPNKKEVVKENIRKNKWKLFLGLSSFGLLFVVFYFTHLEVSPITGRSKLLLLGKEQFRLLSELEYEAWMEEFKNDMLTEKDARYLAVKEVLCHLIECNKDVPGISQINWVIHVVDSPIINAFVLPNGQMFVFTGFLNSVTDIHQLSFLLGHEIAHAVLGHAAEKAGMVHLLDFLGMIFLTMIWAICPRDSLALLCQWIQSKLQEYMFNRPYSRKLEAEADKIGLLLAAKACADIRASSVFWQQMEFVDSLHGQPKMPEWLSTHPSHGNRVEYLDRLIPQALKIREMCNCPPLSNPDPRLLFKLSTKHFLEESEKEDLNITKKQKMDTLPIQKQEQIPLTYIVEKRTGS
Put plainly: Screen of 166 FDA-approved cancer drugs and 390 natural products in Luke-S1 assays. It is filed as cell-based. Further details: The OMA1 enzyme is dormant under physiological cell culture conditions in these cells; endogenous in cells; host or cells: Hek293T cells, transiently or stably (Luke-S1 line, ATCC PTA-127022) expressing reporter #15. The following applies: valinomycin treated controls, ± SD.
Description: Luke-S1 reporter cells were incubated with 10 μM of drugs for 60 minutes after which luciferase substrate was added and bioluminescence measured.

Experiment [2] deals with Luke-TEV reporter. Put plainly: Luke-TEV reporter cleavage in Hek293T cells by Western blot. It is filed as cell-based, human. The conditions noted are these: 3 μM CCCP or 100 nM valinomycin. The source says:
(§1) OPA1 hydrolysis can be monitored by Western blotting. […] The predicted size of full-length Luke-S1 is 31.8 kDa.
For orientation: Immunoblotting shows a protein as a band on a membrane.

Experiment [3] deals with Luke-S1 reporter. Description: Rep#15 / Luke-S1 reporter cleavage in Hek293T cells by Western blot. In kind it is cell-based, human. The following applies: 3 μM CCCP or 100 nM valinomycin. The protocol: For this example, transfected cells were selected by puromycin. […] […] If reporter #15 indeed is cleaved by OMA1, then phenanthroline should prevent this at least to a certain extend by inhibiting OMA1 and accordingly preserving the signal. Hek293T cells were transfected with reporter gene #15 as described in the preceding example. After 24 hours, the transfected cells were incubated with 500 μM phenanthroline in OptiMEM. After 1 hour of pretreatment, CCCP in OptiMEM/phenanthroline was added. to a final concentration of 10 μM CCCP and cells incubated for another 30 minutes at 37° C. After 30 minutes, the medium was replaced with furimazine (1:100 in OptiMEM), and bioluminescence measured as described in Example 1.
as §1

The subject of experiment [4] is OPA1. Description: OPA1 hydrolysis in Hek293T cells by Western blot. The conditions noted are these: 0.1 μM (100 nM) valinomycin, 30 minutes. It is filed as cell-based, human.
Description: as §1

The subject of experiment [5] is Luke-TEV reporter. Put plainly: Luke-TEV control reporter bioluminescence assay in Hek293T cells. It is filed as cell-based, human. The text has this: (§2) Luke-S1 is targeted to the mitochondrial inner membrane by an 86 amino acid portion of OPA1's […] with the protein sequence SEQ ID NO: 27 and the DNA sequence SEQ ID ID NO:28.
The target of experiment [6] is T2, Luke (native NanoLuc enzyme) (Oplophorus gracilirostris, UniProt Q9GV45, A31E/A60N/A81I/F95D/I117V/K70R/L54V/L99Q/M102K/N193R/P142E/Q151K/Q38R/Q45L/V71I/Y165I).
T2 construct: expressed in transfected cells
T2 sequence (Q9GV45 with tags, fused parts or gaps with the stated changes): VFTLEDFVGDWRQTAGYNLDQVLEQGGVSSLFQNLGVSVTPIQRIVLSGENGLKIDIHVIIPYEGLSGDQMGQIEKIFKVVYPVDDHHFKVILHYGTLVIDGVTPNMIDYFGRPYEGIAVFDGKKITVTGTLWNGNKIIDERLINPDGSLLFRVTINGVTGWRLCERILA
Description: Luke (native NanoLuc) control cell bioluminescence assay in Hek293T cells. It is filed as cell-based.
Description: as §2

The target of experiment [7] is T1, OMA1 protease. Put plainly: Rep#15 / Luke-S1 OMA1 reporter bioluminescence assay in Hek293T cells. In kind it is cell-based. Details: The OMA1 enzyme is dormant under physiological cell culture conditions in these cells; endogenous in cells; host or cells: Hek293T cells, transiently or stably (Luke-S1 line, ATCC PTA-127022) expressing reporter #15.
The target in experiment [8] is T1, OMA1 protease. The conditions noted are these: literature; cited from earlier work.

Turning to `CC(C)[C@@H]1NC(=O)[C@H](C)OC(=O)[C@@H](C(C)C)NC(=O)[C@@H](C(C)C)OC(=O)[C@H](C(C)C)NC(=O)[C@H](C)OC(=O)[C@@H](C(C)C)NC(=O)[C@@H](C(C)C)OC(=O)[C@H](C(C)C)NC(=O)[C@H](C)OC(=O)[C@@H](C(C)C)NC(=O)[C@@H](C(C)C)OC1=O` [valinomycin], the “signal intensity normalized to untreated cells (100%)” value in experiment [1] is given as 18.5%. Moreover, the “cleavage of the Luke-TEV reporter in Western blots” value in experiment [2] was “cleaved; also recorded: induced Luke-S1 and Luke-TEV cleavage”. For the same compound, the “cleavage of the Luke-S1 reporter in Western blots” value in experiment [3] was “induced cleavage of the Luke-S1 reporter; also recorded: induced Luke-S1 and Luke-TEV cleavage”. Besides, in experiment [4], the “L-OPA1 proteolysis in Western blots” value is “sufficed for OPA1 cleavage; also recorded: complete L-OPA1 proteolysis”. Further, in experiment [5] (100 nM valinomycin added with luciferase substrate), the “real-time bioluminescence of Luke-TEV vs cells without valinomycin” value is listed as “much smaller difference”. The “signal of Luke-TEV cells in dose-response” value in experiment [5] (30 minutes incubation) is recorded as “only a minor signal reduction”. The “real-time bioluminescence of Luke vs cells without valinomycin” value in experiment [6] (100 nM valinomycin added with luciferase substrate, after 10 minutes) was “no notable differences”. The “bioluminescence of Luke cells in dose-response” value in experiment [6] (30 minutes incubation) is on record as “no effects”. Also, the “real-time bioluminescence of Luke-S1 vs cells without valinomycin” value in experiment [7] (100 nM valinomycin added with luciferase substrate, 25 minutes recording) was “marked signal reduction”. In addition, in experiment [7] (100 nM valinomycin, 30 minutes), the “Luke-S1 signal in cells treated with OMA1 siRNA” value is “no significant signal reduction” and the “Luke-S1 signal in cells treated with control siRNA” value is recorded as “significant signal reduction”. Also, in experiment [7] (100 nM valinomycin, 30 minutes, listed as Valinomycin), the “Luke-S1 signal in cells treated with OMA1 siRNA” value is listed as “not in Luke-S1 cells treated with OMA1 siRNA”. The “effect on OMA1 protease” value in experiment [8] is reported as “can activate the OMA1 protease”.
